# Experimental data: article PMC9098913, “In vitro reconstitution of Escherichia coli divisome activation” (Nature Communications, 2022)
# Test: Diffusion coefficient (Dcoeff) of FtsA from FRAP
# Settings: for Diffusion Coefficient, mean: Fig. 3j; for Dcoeff: Fig. S3i/S3j
# From the text: We could also use the data from these bleaching experiments to quantify the membrane-binding kinetics and diffusion of membrane-bound proteins by analysing the change of the fluorescence profile during recovery.
# Equimolar concentrations of Cy3- and Cy5-labelled FtsA, supplemented with 20% unlabelled FtsA were used to study FRET and FRAP. Five pre-bleach frames were acquired, followed by acceptor photobleaching of a rectangular ROI with 40% 641 nm laser power and a dwell size of 1 µs/pixel, 75% overlapping lines. The recovery of the signal or the increase in donor intensity were measured with either two frames or one frame per second.
# Bleaching the acceptor dye leads to an increase in the donor intensity, which can be used to quantify the Foerster Resonance energy transfer (FRET)[48]. FRET efficiency was quantified with E%=Ipost/Ipost+Ipre⋅100 , where Ipost is the intensity of the […] and Ipre is the […]. […] To extract the contribution of both processes, we adjusted a routine recently published by Gerganova et al.[33]. In short, the code provides the contribution of both modes of recovery by analysing the shape of the fluorescence recovery profile. […] Contribution of diffusion leads to a change of the slope of the outer borders of the bleached region (S4h right). Thus, by measuring the change of the slope of the border recovery, diffusion and simple on/off binding can be distinguished. We developed “FRAPdiff”, a graphical user interface, which uses the original fit routine by David Rutkowski. It can be used directly on.tiff movies with annotated bleach regions as ImageJ ROIs. In addition, we added optional bleach correction, user selectable projection axis (x or y), and optional mirroring of the recovery profiles, if bleaching was not symmetric. The original fit routine for estimating the recovery and diffusion dynamics can be found at https://github.com/davidmrutkowski/1DReflectingDiffusion. FRAPdiff is available at 10.5281/zenodo.6400639[49] under the GPLv3 open-source license.
substance,measurement,setting,value
"FtsA WT: wild-type E. coli actin-homologue FtsA, membrane anchor of FtsZ",Diffusion Coefficient,"0.2µM, + FtsZ, replicate Exp.4",4.01E-02
same,Diffusion Coefficient,"0.2µM, + FtsZ, replicate Exp.5",7.03E-05
same,Diffusion Coefficient,"0.2µM, + FtsZ, replicate Exp.6",2.65E-03
same,Diffusion Coefficient,"0.2µM, + FtsZ, replicate Exp.7",9.70E-04
same,"Diffusion Coefficient, mean",0.4 µM FtsA + N,1.74E-03 µm2/s
same,"Diffusion Coefficient, mean",0.4 µM FtsA + Z&N,1.31E-03 µm2/s
same,"Diffusion Coefficient, mean",0.4 µM FtsA + Z,9.28E-04 µm2/s
same,Diffusion Coefficient,"0.4µM FtsA alone, Mean, n=18 (WT), 9 (R286W)",0.0094
same,"Diffusion Coefficient, mean",0.4 µM FtsA alone,9.38E-03 µm2/s
same,Diffusion Coefficient,"0.4µM FtsA alone, replicate Exp.1",1.66E-03
same,Diffusion Coefficient,"0.4µM FtsA alone, replicate Exp.10",2.61E-04
same,Diffusion Coefficient,"0.4µM FtsA alone, replicate Exp.11",2.61E-03
same,Diffusion Coefficient,"0.4µM FtsA alone, replicate Exp.12",1.80E-02
same,Diffusion Coefficient,"0.4µM FtsA alone, replicate Exp.13",3.92E-03
same,Diffusion Coefficient,"0.4µM FtsA alone, replicate Exp.14",4.91E-02
same,Diffusion Coefficient,"0.4µM FtsA alone, replicate Exp.15",1.40E-02
same,Diffusion Coefficient,"0.4µM FtsA alone, replicate Exp.16",4.71E-05
same,Diffusion Coefficient,"0.4µM FtsA alone, replicate Exp.17",6.43E-03
same,Diffusion Coefficient,"0.4µM FtsA alone, replicate Exp.18",3.05E-04
same,Diffusion Coefficient,"0.4µM FtsA alone, replicate Exp.2",7.21E-03
same,Diffusion Coefficient,"0.4µM FtsA alone, replicate Exp.3",3.35E-02
same,Diffusion Coefficient,"0.4µM FtsA alone, replicate Exp.4",6.07E-07
same,Diffusion Coefficient,"0.4µM FtsA alone, replicate Exp.5",4.86E-04
same,Diffusion Coefficient,"0.4µM FtsA alone, replicate Exp.6",1.29E-02
same,Diffusion Coefficient,"0.4µM FtsA alone, replicate Exp.7",1.54E-02
same,Diffusion Coefficient,"0.4µM FtsA alone, replicate Exp.8",3.15E-04
same,Diffusion Coefficient,"0.4µM FtsA alone, replicate Exp.9",2.76E-03
same,Diffusion Coefficient,"0.4 µM FtsA, FRAP, p-value […] 10^−6",0.01 ± 0.01 µm^2/s
same,Diffusion Coefficient,"0.4µM, + FtsN&Z, Mean, n=6 (WT), 9 (R286W)",0.0013
same,Diffusion Coefficient,"0.4µM, + FtsN&Z, replicate Exp.1",7.97E-04
same,Diffusion Coefficient,"0.4µM, + FtsN&Z, replicate Exp.2",2.09E-03
same,Diffusion Coefficient,"0.4µM, + FtsN&Z, replicate Exp.3",9.40E-04
same,Diffusion Coefficient,"0.4µM, + FtsN&Z, replicate Exp.4",3.16E-04
same,Diffusion Coefficient,"0.4µM, + FtsN&Z, replicate Exp.5",3.44E-03
same,Diffusion Coefficient,"0.4µM, + FtsN&Z, replicate Exp.6",3.02E-04
same,Diffusion Coefficient,"0.4µM, + FtsN, Mean, n=5 (WT), 6 (R286W)",0.0017
same,Diffusion Coefficient,"0.4µM, + FtsN, replicate Exp.1",1.54E-03
same,Diffusion Coefficient,"0.4µM, + FtsN, replicate Exp.2",2.97E-03
same,Diffusion Coefficient,"0.4µM, + FtsN, replicate Exp.3",2.28E-03
same,Diffusion Coefficient,"0.4µM, + FtsN, replicate Exp.4",1.80E-03
same,Diffusion Coefficient,"0.4µM, + FtsN, replicate Exp.5",1.27E-04
same,Diffusion Coefficient,"0.4µM, + FtsZ, Mean, n=5 (WT), 8 (R286W)",0.0009
same,Diffusion Coefficient,"0.4µM, + FtsZ, replicate Exp.1",1.81E-03
same,Diffusion Coefficient,"0.4µM, + FtsZ, replicate Exp.2",9.21E-04
same,Diffusion Coefficient,"0.4µM, + FtsZ, replicate Exp.3",2.54E-06
same,Diffusion Coefficient,"0.4µM, + FtsZ, replicate Exp.4",1.48E-07
same,Diffusion Coefficient,"0.4µM, + FtsZ, replicate Exp.5",1.91E-03
same,"Diffusion Coefficient, mean",0.8 µM FtsA + N,2.78E-04 µm2/s
same,"Diffusion Coefficient, mean",0.8 µM FtsA + Z&N,1.55E-03 µm2/s
same,"Diffusion Coefficient, mean",0.8 µM FtsA + Z,1.98E-04 µm2/s
same,Diffusion Coefficient,"0.8µM FtsA alone, Mean, n=19 (WT), 8 (R286W)",0.0008
same,"Diffusion Coefficient, mean",0.8 µM FtsA alone,8.23E-04 µm2/s
same,Diffusion Coefficient,"0.8µM FtsA alone, replicate Exp.1",7.29E-03
same,Diffusion Coefficient,"0.8µM FtsA alone, replicate Exp.10",4.22E-07
same,Diffusion Coefficient,"0.8µM FtsA alone, replicate Exp.11",6.76E-05
same,Diffusion Coefficient,"0.8µM FtsA alone, replicate Exp.12",1.41E-04
same,Diffusion Coefficient,"0.8µM FtsA alone, replicate Exp.13",9.30E-04
same,Diffusion Coefficient,"0.8µM FtsA alone, replicate Exp.14",4.15E-06
same,Diffusion Coefficient,"0.8µM FtsA alone, replicate Exp.15",1.75E-03
same,Diffusion Coefficient,"0.8µM FtsA alone, replicate Exp.16",1.00E-03
same,Diffusion Coefficient,"0.8µM FtsA alone, replicate Exp.17",1.78E-04
same,Diffusion Coefficient,"0.8µM FtsA alone, replicate Exp.18",3.36E-03
same,Diffusion Coefficient,"0.8µM FtsA alone, replicate Exp.19",2.24E-04
same,Diffusion Coefficient,"0.8µM FtsA alone, replicate Exp.2",2.12E-04
same,Diffusion Coefficient,"0.8µM FtsA alone, replicate Exp.3",6.52E-08
same,Diffusion Coefficient,"0.8µM FtsA alone, replicate Exp.4",1.44E-04
same,Diffusion Coefficient,"0.8µM FtsA alone, replicate Exp.5",5.47E-08
same,Diffusion Coefficient,"0.8µM FtsA alone, replicate Exp.6",4.93E-07
same,Diffusion Coefficient,"0.8µM FtsA alone, replicate Exp.7",2.75E-04
same,Diffusion Coefficient,"0.8µM FtsA alone, replicate Exp.8",6.96E-06
same,Diffusion Coefficient,"0.8µM FtsA alone, replicate Exp.9",4.32E-05
same,Diffusion Coefficient,"0.8µM, + FtsN&Z, Mean, n=5 (WT), 4 (R286W)",0.0015
same,Diffusion Coefficient,"0.8µM, + FtsN&Z, replicate Exp.1",2.13E-03
same,Diffusion Coefficient,"0.8µM, + FtsN&Z, replicate Exp.2",1.07E-06
same,Diffusion Coefficient,"0.8µM, + FtsN&Z, replicate Exp.3",6.03E-04
same,Diffusion Coefficient,"0.8µM, + FtsN&Z, replicate Exp.4",3.04E-03
same,Diffusion Coefficient,"0.8µM, + FtsN&Z, replicate Exp.5",1.98E-03
same,Diffusion Coefficient,"0.8µM, + FtsN, Mean, n=4 (WT), 3 (R286W)",0.000278
same,Diffusion Coefficient,"0.8µM, + FtsN, replicate Exp.1",2.14E-05
same,Diffusion Coefficient,"0.8µM, + FtsN, replicate Exp.2",6.16E-05
same,Diffusion Coefficient,"0.8µM, + FtsN, replicate Exp.3",1.34E-04
same,Diffusion Coefficient,"0.8µM, + FtsN, replicate Exp.4",8.93E-04
same,Diffusion Coefficient,"0.8µM, + FtsZ, Mean, n=3 (WT), 8 (R286W)",0.0002
same,Diffusion Coefficient,"0.8µM, + FtsZ, replicate Exp.1",7.26E-07
same,Diffusion Coefficient,"0.8µM, + FtsZ, replicate Exp.2",4.83E-04
same,Diffusion Coefficient,"0.8µM, + FtsZ, replicate Exp.3",1.10E-04
same,Dcoeff,"0.10 µM FtsA, replicate 1",5.58E-02 µm2/s
same,Dcoeff,"0.10 µM FtsA, replicate 2",3.42E-03 µm2/s
same,Dcoeff,"0.10 µM FtsA, replicate 3",1.87E-02 µm2/s
same,Dcoeff,"0.10 µM FtsA, replicate 4",5.22E-02 µm2/s
same,Dcoeff,"0.10 µM FtsA, summary value",2.68E-02 µm2/s
same,Dcoeff,"0.20 µM FtsA, summary value",1.77E-02 µm2/s
same,Dcoeff,"0.40 µM FtsA, summary value",9.38E-03 µm2/s
same,Dcoeff,"0.80 µM FtsA, summary value",8.23E-04 µm2/s
